In ChEMBL document CHEMBL4052645, “Discovery of potent and efficacious pyrrolopyridazines as dual JAK1/3 inhibitors” (Bioorg Med Chem Lett, 2017):

How the values were obtained:
[1] = molecular target: Serine/threonine-protein kinase TAO1 (Homo sapiens) (UniProt Q7L7X3); experiment: Inhibition of wild-type human partial length TAO1 (M1 to A320 residues) expressed in mammalian expression system assessed as residual activity at 50 nM by Kinomescan method relative to control
[2] = molecular target: Mitogen-activated protein kinase kinase kinase 3 (Homo sapiens) (UniProt Q99759); experiment: Inhibition of wild-type human partial length MAP3K3 (E320 to Y626 residues) expressed in mammalian expression system assessed as residual activity at 50 nM by Kinomescan method relative to control
[3] = molecular target: Serine/threonine-protein kinase Nek11 (Homo sapiens) (UniProt Q8NG66); experiment: Inhibition of wild-type human partial length NEK11 (M1 to E313 residues) expressed in mammalian expression system assessed as residual activity at 50 nM by Kinomescan method relative to control
[4] = molecular target: Protein kinase C epsilon type (Homo sapiens) (UniProt Q02156); experiment: Inhibition of wild-type human partial length PKCE (A378 to P737 residues) expressed in mammalian expression system assessed as residual activity at 50 nM by Kinomescan method relative to control
[5] = molecular target: Receptor-interacting serine/threonine-protein kinase 4 (Homo sapiens) (UniProt P57078); experiment: Inhibition of wild-type human partial length ANKRD3 (M1 to V303 residues) expressed in mammalian expression system assessed as residual activity at 50 nM by Kinomescan method relative to control
[6] = molecular target: Ephrin type-A receptor 6 (Homo sapiens) (UniProt Q9UF33); experiment: Inhibition of wild-type human partial length EPHA6 (Y700 to E1046 residues) expressed in bacterial expression system assessed as residual activity at 50 nM by Kinomescan method relative to control
[7] = molecular target: Calcium/calmodulin-dependent protein kinase kinase 1 (Homo sapiens) (UniProt Q8N5S9); experiment: Inhibition of wild-type human partial length CAMKK1 (R65 to E414 residues) expressed in bacterial expression system assessed as residual activity at 50 nM by Kinomescan method relative to control
[8] = molecular target: Mitogen-activated protein kinase 7 (Homo sapiens) (UniProt Q13164); experiment: Inhibition of wild-type human partial length ERK5 (M1 to A409 residues) expressed in bacterial expression system assessed as residual activity at 50 nM by Kinomescan method relative to control
[9] = molecular target: SRSF protein kinase 3 (Homo sapiens) (UniProt Q9UPE1); experiment: Inhibition of wild-type human partial length MSSK1 (P41 to P567 residues) expressed in bacterial expression system assessed as residual activity at 50 nM by Kinomescan method relative to control
[10] = molecular target: Rho-associated protein kinase 1 (Homo sapiens, UniProt Q13464); experiment: Inhibition of human ROCK1 (M1 to R415 residues) expressed in mammalian expression system assessed as residual activity at 50 nM by KINOMEscan assay relative to control
[11] = molecular target: cAMP-dependent protein kinase catalytic subunit PRKX (Homo sapiens) (UniProt P51817); experiment: Inhibition of wild-type human partial length PRKX (M1 to F358 residues) expressed in bacterial expression system assessed as residual activity at 50 nM by Kinomescan method relative to control
[12] = molecular target: Serine/threonine-protein kinase D1 (Homo sapiens) (UniProt Q15139); experiment: Inhibition of wild-type human partial length PKD1 (G551 to E870 residues) expressed in bacterial expression system assessed as residual activity at 50 nM by Kinomescan method relative to control
[13] = molecular target: Interleukin-1 receptor-associated kinase 4 (Homo sapiens) (UniProt Q9NWZ3); experiment: Inhibition of wild-type human partial length IRAK4 (M1 to S460 residues) expressed in mammalian expression system assessed as residual activity at 50 nM by Kinomescan method relative to control
[14] = molecular target: Proto-oncogene tyrosine-protein kinase Src (Homo sapiens) (UniProt P12931); experiment: Inhibition of wild-type human partial length SRC (L240 to L536 residues) expressed in bacterial expression system assessed as residual activity at 50 nM by Kinomescan method relative to control
[15] = molecular target: Cyclin-dependent kinase-like 5 (Homo sapiens) (UniProt O76039); experiment: Inhibition of wild-type human partial length CDKL5 (M1 to S337 residues) expressed in mammalian expression system assessed as residual activity at 50 nM by Kinomescan method relative to control
[16] = molecular target: Ribosomal protein S6 kinase beta-1 (Homo sapiens) (UniProt P23443); experiment: Inhibition of wild-type human partial length P70S6K (M1 to S421 residues) expressed in mammalian expression system assessed as residual activity at 50 nM by Kinomescan method relative to control
[17] = molecular target: TGF-beta receptor type-1 (Homo sapiens) (UniProt P36897); experiment: Inhibition of wild-type human partial length TGFBR1 (D179 to M503 residues) expressed in bacterial expression system assessed as residual activity at 50 nM by Kinomescan method relative to control
[18] = molecular target: Dual serine/threonine and tyrosine protein kinase (Homo sapiens) (UniProt Q6XUX3); experiment: Inhibition of wild-type human full length RIPK5 (M1 to T929 residues) expressed in mammalian expression system assessed as residual activity at 50 nM by Kinomescan method relative to control
[19] = molecular target: MAP/microtubule affinity-regulating kinase 4 (Homo sapiens) (UniProt Q96L34); experiment: Inhibition of wild-type human partial length MARK4 (K29 to G340 residues) expressed in bacterial expression system assessed as residual activity at 50 nM by Kinomescan method relative to control
[20] = molecular target: Eukaryotic translation initiation factor 2-alpha kinase 1 (Homo sapiens) (UniProt Q9BQI3); experiment: Inhibition of wild-type human partial length EIF2AK1 (Q147 to E603 residues) expressed in mammalian expression system assessed as residual activity at 50 nM by Kinomescan method relative to control
[21] = molecular target: Ankyrin repeat and protein kinase domain-containing protein 1 (Homo sapiens) (UniProt Q8NFD2); experiment: Inhibition of wild-type human partial length SGK288 (M1 to A305 residues) expressed in mammalian expression system assessed as residual activity at 50 nM by Kinomescan method relative to control
[22] = system: Phosphatidylinositol 4,5-bisphosphate 3-kinase catalytic subunit alpha isoform (Homo sapiens), P42336 [M1043I]; experiment: Inhibition of human partial length PIK3CA M1043I mutant (R108 to N1068 residues) expressed in mammalian expression system assessed as residual activity at 50 nM by Kinomescan method relative to control
[23] = molecular target: Death-associated protein kinase 2 (Homo sapiens) (UniProt Q9UIK4); experiment: Inhibition of wild-type human full length DAPK2 (M1 to S370 residues) expressed in bacterial expression system assessed as residual activity at 50 nM by Kinomescan method relative to control
[24] = molecular target: Rhodopsin kinase GRK1 (Homo sapiens) (UniProt Q15835); experiment: Inhibition of wild-type human full length RHOK (M1 to S563 residues) expressed in mammalian expression system assessed as residual activity at 50 nM by Kinomescan method relative to control
[25] = molecular target: Serine/threonine-protein kinase PAK 3 (Homo sapiens) (UniProt O75914); experiment: Inhibition of wild-type human full length PAK3 (M1 to R544 residues) expressed in bacterial expression system assessed as residual activity at 50 nM by Kinomescan method relative to control

Chain of Receptor-interacting serine/threonine-protein kinase 4 (Homo sapiens) (P57078 whole entry, the tested form may be a part): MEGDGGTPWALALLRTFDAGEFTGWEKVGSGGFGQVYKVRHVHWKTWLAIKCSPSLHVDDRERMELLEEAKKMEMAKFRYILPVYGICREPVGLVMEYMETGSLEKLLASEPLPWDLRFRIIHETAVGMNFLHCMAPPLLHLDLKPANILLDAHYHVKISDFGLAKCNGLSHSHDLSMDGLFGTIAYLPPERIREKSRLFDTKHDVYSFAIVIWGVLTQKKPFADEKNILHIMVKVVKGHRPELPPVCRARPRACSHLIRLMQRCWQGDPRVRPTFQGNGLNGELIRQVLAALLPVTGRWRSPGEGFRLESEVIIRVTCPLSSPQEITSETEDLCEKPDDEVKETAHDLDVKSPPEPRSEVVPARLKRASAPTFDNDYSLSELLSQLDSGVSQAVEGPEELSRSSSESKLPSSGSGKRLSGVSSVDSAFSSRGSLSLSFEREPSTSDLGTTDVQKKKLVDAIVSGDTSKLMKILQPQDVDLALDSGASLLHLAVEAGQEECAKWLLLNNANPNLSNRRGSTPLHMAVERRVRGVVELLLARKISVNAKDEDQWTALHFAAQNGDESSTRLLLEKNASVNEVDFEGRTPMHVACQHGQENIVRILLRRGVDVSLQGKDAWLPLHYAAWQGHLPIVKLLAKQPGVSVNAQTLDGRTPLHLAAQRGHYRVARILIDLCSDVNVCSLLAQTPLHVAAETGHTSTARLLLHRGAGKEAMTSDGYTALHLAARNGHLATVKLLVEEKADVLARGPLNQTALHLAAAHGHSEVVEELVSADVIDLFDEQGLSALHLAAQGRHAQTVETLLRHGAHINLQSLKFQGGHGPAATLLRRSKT
Chain of Ephrin type-A receptor 6 (Homo sapiens) (Q9UF33 whole entry, the tested form may be a part): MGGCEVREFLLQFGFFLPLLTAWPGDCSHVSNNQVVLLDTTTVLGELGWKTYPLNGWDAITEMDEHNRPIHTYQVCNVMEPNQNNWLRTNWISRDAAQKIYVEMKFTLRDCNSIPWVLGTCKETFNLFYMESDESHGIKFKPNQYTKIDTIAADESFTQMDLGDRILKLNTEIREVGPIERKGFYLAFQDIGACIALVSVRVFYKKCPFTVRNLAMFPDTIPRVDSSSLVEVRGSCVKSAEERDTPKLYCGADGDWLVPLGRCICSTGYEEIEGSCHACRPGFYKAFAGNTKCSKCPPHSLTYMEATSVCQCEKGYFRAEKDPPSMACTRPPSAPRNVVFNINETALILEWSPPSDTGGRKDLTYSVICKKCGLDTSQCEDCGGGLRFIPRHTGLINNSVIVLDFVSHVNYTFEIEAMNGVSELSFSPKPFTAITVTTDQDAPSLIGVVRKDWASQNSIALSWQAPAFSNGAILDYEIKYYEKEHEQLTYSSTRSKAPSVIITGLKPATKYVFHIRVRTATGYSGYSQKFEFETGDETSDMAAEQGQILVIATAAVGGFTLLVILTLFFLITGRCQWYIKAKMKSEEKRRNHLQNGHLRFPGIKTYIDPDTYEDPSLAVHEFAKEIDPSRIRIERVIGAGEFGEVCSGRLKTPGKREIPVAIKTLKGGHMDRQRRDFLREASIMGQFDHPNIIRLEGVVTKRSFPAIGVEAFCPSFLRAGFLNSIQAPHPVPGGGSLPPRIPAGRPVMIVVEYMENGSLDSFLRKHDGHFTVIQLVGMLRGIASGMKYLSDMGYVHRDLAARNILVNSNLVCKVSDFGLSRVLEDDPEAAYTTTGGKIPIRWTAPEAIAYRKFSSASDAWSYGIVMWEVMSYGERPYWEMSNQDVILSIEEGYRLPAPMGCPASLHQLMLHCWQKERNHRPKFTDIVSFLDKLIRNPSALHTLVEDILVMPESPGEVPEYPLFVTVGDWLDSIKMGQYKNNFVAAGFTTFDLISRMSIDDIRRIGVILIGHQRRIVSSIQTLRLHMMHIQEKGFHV
Chain of Calcium/calmodulin-dependent protein kinase kinase 1 (Homo sapiens) (Q8N5S9 whole entry, looked up, the tested form may be a part): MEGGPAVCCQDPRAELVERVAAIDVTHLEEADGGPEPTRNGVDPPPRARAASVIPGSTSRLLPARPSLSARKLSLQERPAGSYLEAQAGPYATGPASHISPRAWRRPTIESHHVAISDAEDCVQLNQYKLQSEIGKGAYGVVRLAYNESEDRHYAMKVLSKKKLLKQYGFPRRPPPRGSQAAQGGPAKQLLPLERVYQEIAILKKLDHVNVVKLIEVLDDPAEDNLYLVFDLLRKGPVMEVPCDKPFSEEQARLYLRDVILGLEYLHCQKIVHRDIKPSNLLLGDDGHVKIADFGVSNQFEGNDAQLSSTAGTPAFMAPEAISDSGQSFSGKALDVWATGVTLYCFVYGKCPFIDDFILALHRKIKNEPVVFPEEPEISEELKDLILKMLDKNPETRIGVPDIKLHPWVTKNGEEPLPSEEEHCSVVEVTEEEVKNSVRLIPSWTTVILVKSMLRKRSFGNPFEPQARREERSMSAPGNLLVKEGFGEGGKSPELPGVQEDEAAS
Chain of Mitogen-activated protein kinase kinase kinase 3 (Homo sapiens) (Q99759 whole entry, the tested form may be a part): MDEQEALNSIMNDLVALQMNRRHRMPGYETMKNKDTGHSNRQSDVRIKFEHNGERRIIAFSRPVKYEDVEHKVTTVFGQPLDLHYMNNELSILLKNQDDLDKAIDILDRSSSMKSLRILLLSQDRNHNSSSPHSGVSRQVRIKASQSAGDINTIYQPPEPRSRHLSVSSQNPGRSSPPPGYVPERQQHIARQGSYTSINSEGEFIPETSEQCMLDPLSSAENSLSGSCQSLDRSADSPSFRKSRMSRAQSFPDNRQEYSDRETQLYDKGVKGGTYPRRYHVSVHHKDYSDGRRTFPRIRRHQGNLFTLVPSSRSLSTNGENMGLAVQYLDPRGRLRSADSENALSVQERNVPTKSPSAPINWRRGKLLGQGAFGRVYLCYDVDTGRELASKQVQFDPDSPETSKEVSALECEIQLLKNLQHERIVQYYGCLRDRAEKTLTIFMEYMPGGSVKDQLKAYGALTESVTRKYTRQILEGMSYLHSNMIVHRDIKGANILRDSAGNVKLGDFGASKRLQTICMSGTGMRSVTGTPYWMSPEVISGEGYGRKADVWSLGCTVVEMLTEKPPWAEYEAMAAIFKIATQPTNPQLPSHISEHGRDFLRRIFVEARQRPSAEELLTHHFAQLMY
Chain of Rho-associated protein kinase 1 (Q13464 2-1354 limits assumed): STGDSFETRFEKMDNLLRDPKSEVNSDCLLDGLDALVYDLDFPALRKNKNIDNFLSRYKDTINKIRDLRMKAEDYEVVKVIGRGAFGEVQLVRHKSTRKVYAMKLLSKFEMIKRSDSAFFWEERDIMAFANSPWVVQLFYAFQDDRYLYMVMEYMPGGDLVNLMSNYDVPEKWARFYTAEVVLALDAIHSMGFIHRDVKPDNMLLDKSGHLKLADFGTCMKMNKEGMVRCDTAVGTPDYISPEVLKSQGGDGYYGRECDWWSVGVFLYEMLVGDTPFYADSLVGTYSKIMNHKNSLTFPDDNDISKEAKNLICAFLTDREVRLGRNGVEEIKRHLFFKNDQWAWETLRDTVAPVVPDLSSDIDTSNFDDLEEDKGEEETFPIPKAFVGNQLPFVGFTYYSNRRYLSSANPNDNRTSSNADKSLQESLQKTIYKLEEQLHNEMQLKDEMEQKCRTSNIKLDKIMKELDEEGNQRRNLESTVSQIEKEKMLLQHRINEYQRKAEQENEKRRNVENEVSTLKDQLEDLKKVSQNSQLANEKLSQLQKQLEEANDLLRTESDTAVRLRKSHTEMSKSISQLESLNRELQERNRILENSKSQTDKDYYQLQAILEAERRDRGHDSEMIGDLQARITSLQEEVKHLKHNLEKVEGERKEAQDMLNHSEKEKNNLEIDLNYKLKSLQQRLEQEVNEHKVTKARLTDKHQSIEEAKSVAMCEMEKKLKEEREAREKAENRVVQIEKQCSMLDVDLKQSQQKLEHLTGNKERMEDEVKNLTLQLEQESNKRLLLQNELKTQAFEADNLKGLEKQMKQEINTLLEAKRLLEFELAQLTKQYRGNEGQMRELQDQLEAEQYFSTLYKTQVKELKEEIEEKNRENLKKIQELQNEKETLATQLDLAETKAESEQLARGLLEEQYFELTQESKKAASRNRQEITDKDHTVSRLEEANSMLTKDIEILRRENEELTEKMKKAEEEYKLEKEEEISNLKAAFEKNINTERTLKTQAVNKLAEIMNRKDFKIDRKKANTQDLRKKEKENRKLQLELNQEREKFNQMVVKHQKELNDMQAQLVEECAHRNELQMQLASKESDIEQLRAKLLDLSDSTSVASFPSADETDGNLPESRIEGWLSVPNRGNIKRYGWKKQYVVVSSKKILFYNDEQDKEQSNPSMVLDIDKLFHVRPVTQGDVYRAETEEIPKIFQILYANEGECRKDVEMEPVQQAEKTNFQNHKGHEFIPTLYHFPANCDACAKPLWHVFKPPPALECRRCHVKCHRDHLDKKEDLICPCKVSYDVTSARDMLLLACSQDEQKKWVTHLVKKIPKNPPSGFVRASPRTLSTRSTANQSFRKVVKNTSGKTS
Chain of MAP/microtubule affinity-regulating kinase 4 (Homo sapiens) (Q96L34 whole entry, the tested form may be a part): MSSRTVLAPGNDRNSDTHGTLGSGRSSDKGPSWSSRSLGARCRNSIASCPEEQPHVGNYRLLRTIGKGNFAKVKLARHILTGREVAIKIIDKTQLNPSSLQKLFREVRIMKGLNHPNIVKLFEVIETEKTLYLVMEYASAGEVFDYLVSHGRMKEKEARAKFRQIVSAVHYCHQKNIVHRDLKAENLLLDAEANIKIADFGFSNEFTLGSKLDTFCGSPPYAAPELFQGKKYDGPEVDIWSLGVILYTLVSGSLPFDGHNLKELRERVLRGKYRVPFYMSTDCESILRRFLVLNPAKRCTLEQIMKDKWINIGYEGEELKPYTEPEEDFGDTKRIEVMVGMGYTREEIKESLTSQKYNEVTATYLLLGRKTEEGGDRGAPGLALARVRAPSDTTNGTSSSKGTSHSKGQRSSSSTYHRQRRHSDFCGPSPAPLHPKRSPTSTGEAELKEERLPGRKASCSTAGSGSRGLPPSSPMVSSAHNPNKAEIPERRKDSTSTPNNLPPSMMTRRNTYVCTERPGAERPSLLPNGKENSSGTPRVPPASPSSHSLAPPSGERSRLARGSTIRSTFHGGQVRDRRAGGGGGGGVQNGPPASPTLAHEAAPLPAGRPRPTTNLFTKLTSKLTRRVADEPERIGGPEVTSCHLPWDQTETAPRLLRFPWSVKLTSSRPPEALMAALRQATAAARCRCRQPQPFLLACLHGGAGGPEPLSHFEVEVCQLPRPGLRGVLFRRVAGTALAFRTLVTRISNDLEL

Row | Compound | Activity [1] [%] | Activity [2] [%] | Activity [3] [%] | Activity [4] [%] | Activity [5] [%] | Activity [6] [%] | Activity [7] [%] | Activity [8] [%] | Activity [9] [%] | Activity [10] [%] | Activity [11] [%] | Activity [12] [%] | Activity [13] [%] | Activity [14] [%] | Activity [15] [%] | Activity [16] [%] | Activity [17] [%] | Activity [18] [%] | Activity [19] [%] | Activity [20] [%] | further results
1 | COc1ccc(-c2cc3c(N[C@@H]4CC[C@](C)(N)C4(C)C)c(C(N)=O)cnn3c2)cn1 | 59 | 71 | 99 | 72 | 98 | 95 | 100 | 100 | 100 | 36 | 100 | 96 | 100 | 97 | 90 | 97 | 95 | 74 | 93 | 96 | Activity [21]: 100%; Activity [22]: 100%; Activity [23]: 92%; Activity [24]: 100%; Activity [25]: 64%
2 | CC1(C)[C@H](Nc2c(C(N)=O)cnn3cc(-c4ccccc4)cc23)CC[C@]1(C)N | 54 | 61 | 87 | 58 | 59 | 100 | 92 | 96 | 56 | 5.3 | 59 | 100 | 100 | 75 | 83 | 96 | 100 | 92 | 79 | 94 | Activity [21]: 100%; Activity [22]: 66%; Activity [23]: 71%; Activity [24]: 100%; Activity [25]: 53%
